Measurements from PubChem BioAssay (NCI).
Several values for one entry are separate records, joined by “and”; a condition that tells them apart may be missing. Equal values may be shown once.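 A five-concentration, 48-hour dose response in 96-well plates underlies each endpoint, interpolated linearly between surrounding concentrations. GI50 = concentration required for 50% inhibition of growth. Definition used: TGI = concentration required for complete inhibition of growth.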

How the values were obtained:
Assay in all cases: NCI anticancer screen, dose series, 48 h
SK-MEL-5 melanoma = test system: SK-MEL-5 melanoma
A498 renal = test system: A498 renal
EKVX NSCLC = test system: EKVX NSCLC
MDA-MB-435 = test system: MDA-MB-435
OVCAR-4 ovarian = test system: OVCAR-4 ovarian
NCI-H23 lung = test system: NCI-H23 lung
HCC-2998 colon = test system: HCC-2998 colon
786-0 renal = test system: 786-0 renal

Row | Compound | GI50 (SK-MEL-5 melanoma) [µM] | TGI (SK-MEL-5 melanoma) | GI50 (A498 renal) [µM] | TGI (A498 renal) | TGI (EKVX NSCLC) [µM] | TGI (MDA-MB-435) | GI50 (OVCAR-4 ovarian) [µM] | TGI (OVCAR-4 ovarian) | TGI (NCI-H23 lung) [µM] | GI50 (HCC-2998 colon) [µM] | TGI (HCC-2998 colon) | GI50 (786-0 renal) [µM] | TGI (786-0 renal) | GI50 (MDA-MB-435) [µM] | GI50 (NCI-H23 lung) [µM] | GI50 (EKVX NSCLC) [µM]
1 | c1ccc2c(c1)[nH]c1c2cc[n+]2cc3c(cc12)CCCC3 | 1.29 | 3.22 µM and 5.83 µM | 3.48 | 13.9 µM and > 100 µM | 32.4 | 6.34 µM and 7.54 µM | 2.14 | 7.6 µM and 5.73 µM | 6.95 | 2.67 | 7.71 µM and 4.66 µM | 4 | 16.4 µM and 12.7 µM |  |  | 
2 | N#CCCN1C/C(=C/c2ccc(Br)cc2)C(=O)/C(=C/c2ccc(Br)cc2)C1 | 1.58 | 2.93 µM |  |  |  | 6.83 µM | 2.69 | > 100 µM | 7.58 | 1.85 | 3.31 µM | 1.38 | 2.84 µM | 2.24 | 2.64 | 
3 | CCc1ccc2c(c1)C(=O)c1c-2n(CCCN=[N+]=[N-])c(=O)c2cc([N+](=O)[O-])ccc12 | > 50 | > 50 µM | > 50 | > 50 µM | > 50 | > 50 µM | 49.6 | > 50 µM | > 50 | > 50 | > 50 µM | > 50 | > 50 µM | > 50 | > 50 | > 50
4 | O=C(c1ccco1)c1c(C(F)(F)F)n([O-])c2ccc(C(F)(F)F)cc2[n+]1=O | 0.508 | 1.09 µM | 1.41 | 2.76 µM | 2.07 | 2.56 µM |  |  | 2.3 | 1.04 | 2.5 µM | 0.426 | 0.831 µM | 1.16 | 0.853 | 0.727
5 | O=C(O)c1cccc(COc2ccc([N+](=O)[O-])cc2Cl)c1 | 40.1 | > 100 µM |  |  | 4.87 | > 100 µM | > 100 | > 100 µM |  | > 100 | > 100 µM | > 100 | > 100 µM | > 100 |  | 0.549
6 | COc1ccc(-c2nn(-c3cccc(Cl)c3)cc2-c2cc(-c3ccccc3)[nH]c(=O)c2C#N)cc1 | 5.76 | > 50 µM | 0.171 | 1.6 µM | > 50 | > 50 µM | 1.25 | 5.34 µM | 13.6 | 15.9 | > 50 µM | 1.6 | 7.25 µM | > 50 | 2.46 | 1.37
7 | c1coc(-c2c3ccc(=[N+]4CCCCC4)cc-3oc3cc(N4CCCCC4)ccc23)c1 | 0.177 | 0.471 µM | 0.0784 | 0.568 µM |  |  | 0.0707 | 0.883 µM |  | 0.0751 | 0.331 µM | 0.0455 | 0.424 µM |  |  | 
8 | COc1cc(/C=C\c2cc(OC)c(OC)c(OC)c2)cc(N/C=C\C(=O)c2c[nH]c3ccccc23)c1OC | 3.14 | 12.6 µM | 1.32 | 12 µM |  | 8.04 µM |  |  | 16.2 | 3.34 | 10.5 µM | 2.04 | 4.14 µM | 2.43 | 3.75 | 
9 | CC1(C)CN=C(NN=C(/C=C/c2ccc(C(F)(F)F)cc2)/C=C/c2ccc(C(F)(F)F)cc2)NC1 | 1.6 | 3.11 µM | 1.42 | 2.78 µM |  | 3 µM | 1.29 | 2.72 µM | 3.23 | 1.41 | 2.92 µM | 1.78 | 3.42 µM | 1.59 | 1.56 | 
10 | O=C(/C=C/c1ccccc1)c1ccccc1 |  | > 10 µM |  | > 10 µM | > 10 | > 10 µM |  | > 10 µM | > 10 |  | > 10 µM |  | > 10 µM |  |  | 
11 | Cc1cc(Nc2nc(-c3cn(-c4ccc(Cl)cc4)nn3)nc3ccccc23)n[nH]1 | 20.8 | > 50 µM | > 50 | > 50 µM |  | > 50 µM | 10.1 | > 50 µM |  | 36.4 | > 50 µM | 15.1 | > 50 µM | 11.6 |  | 
12 | COc1ccc(-c2nc(-c3cc(OC)cc(OC)c3)[nH]c2-c2ccc(OC)cc2)cc1 | 1.85 | 3.7 µM | > 100 | > 100 µM |  | > 100 µM | 4.03 | > 100 µM | > 100 | 5.96 | > 100 µM | > 100 | > 100 µM | 5.98 | 4.72 | 
13 | Cc1ccccc1C1=[N+]([O-])c2ccc(Cl)cc2C1=O |  | 26.7 µM |  | 71.4 µM | 25 |  |  |  | 32.2 |  | 29.4 µM |  | 32.9 µM |  |  | 
14 | O=C(/C(=C\c1c(-c2ccccc2)[nH]c2ccccc12)S(=O)(=O)c1ccccc1)c1ccccc1 | 9.01 | > 100 µM |  |  | > 100 | > 100 µM | 6.58 | > 100 µM | > 100 | > 100 | > 100 µM | > 100 | > 100 µM | 3.94 | 9.57 | 4.56
15 | COc1ccc(C(=O)c2cc(OC)c(OC)c(OC)c2)cc1OC |  | > 100 µM |  |  | > 100 | 1.89 µM |  |  | > 100 |  | 5.79 µM |  | > 100 µM |  |  | 
16 | COc1cc(/C=C2\[C@H]3c4c(c(OC)c(C)c(OC)c4OC)CC(C(=O)N2Cc2ccccc2)N3C)c(OC)c(C)c1OC |  | 33 µM |  | 50.1 µM | 67.6 |  |  | > 100 µM | > 100 |  | 62.8 µM |  | 40.6 µM |  |  | 
17 | CC(C)(C)[Si](C)(C)OC1[C@@H](CNC(=O)NC(=O)CCl)O[C@@H](n2cnc3c(N)ncnc32)[C@H]1O[Si](C)(C)C(C)(C)C (some centres not stated) | 0.862 | 1.6 µM | 6.21 | 12.8 µM |  | 1.56 µM | 0.924 | 2.51 µM | 2.08 | 1.61 | 3.95 µM | 0.662 | 1.55 µM | 0.798 | 0.955 | 
18 | COC(=O)c1cc2c(o1)-c1nccc3c1c(nc1ccccc13)C2=O | 1.2 | 4.69 µM | 18 | 39.1 µM | 35 | 1.81 µM |  |  | 26.7 |  |  | 2.93 | 14 µM | 0.538 | 5.66 | 14.9
